The source of these data is US8232288B2, “Substituted benzimidazoles, benzothiazoles and benzoxazoles” (Gruenenthal GmbH, priority 2009, dated 2012).

Test [1] addresses T1, B1R receptor of the rat (rB1R) (Rattus norvegicus, UniProt P97583).
T1 construct: expressed in transfected cells; host or cells: CHO K1 cells
T1 sequence (P97583 1-337): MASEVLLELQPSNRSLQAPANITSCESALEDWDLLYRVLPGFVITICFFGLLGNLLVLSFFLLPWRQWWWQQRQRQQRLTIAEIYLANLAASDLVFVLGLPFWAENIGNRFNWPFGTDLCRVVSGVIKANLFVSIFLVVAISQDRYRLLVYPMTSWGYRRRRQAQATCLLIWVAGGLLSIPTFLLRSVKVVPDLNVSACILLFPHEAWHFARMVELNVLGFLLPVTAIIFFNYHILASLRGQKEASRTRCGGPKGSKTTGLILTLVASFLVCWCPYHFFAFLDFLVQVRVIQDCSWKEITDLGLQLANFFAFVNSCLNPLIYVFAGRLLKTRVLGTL
Description: Functional investigation on the bradykinin receptor 1 (B1R), FLIPR Ca2+ assay, rB1R cells. In kind it is cell-based. How it is done: (§1) The agonistic or antagonistic action of substances can be quantified on the bradykinin receptor 1 (B1R) of the human and rat species with ectopically expressing cell lines (CHO K1 cells) and with the aid of a Ca^2+-sensitive dyestuff (Fluo-4) in a fluorescent imaging plate reader (FLIPR). The figure in % activation is based on the Ca^2+ signal after addition of Lys-Des-Arg^9-bradykinin (0.5 nM) or Des-Arg^9-bradykinin (100 nM). Antagonists lead to a suppression of the Ca^2+ inflow after addition of the agonist. % inhibition compared with the maximum achievable inhibition is stated.
(§2) The agonistic or antagonistic action of substances can be determined on the bradykinin receptor 1 (B1R) of the human and rat species with the following assay. In accordance with this assay, the Ca^2+ inflow through the channel is quantified with the aid of a Ca^2+-sensitive dyestuff (type Fluo-4, Molecular Probes Europe BV, Leiden Holland) in a fluorescent imaging plate reader (FLIPR, Molecular Devices, Sunnyvale, USA).
(§3) Chinese hamster ovary cells (CHO K1 cells) transfected stably with the human B1R gene (hB1R cells) or the B1R gene of the rat (rB1R cells) are used. For functional studies, these cells are plated out on black 96-well plates with a clear base (BD Biosciences, Heidelberg, Germany or Greiner, Frickenhausen, Germany) in a density of 20,000-35,000 cells/well. The cells are left overnight at 37° C. and 5% CO2 in culture medium (hB1R cells: Nutrient Mixture Ham's F12, Gibco Invitrogen GmbH, Karlsruhe, Germany or DMEM, Sigma-Aldrich, Taufkirchen, Germany; rB1R cells: D-MEM/F12, Gibco Invitrogen GmbH, Karlsruhe, Germany) with 10 vol. % FBS (foetal bovine serum, Gibco Invitrogen GmbH, Karlsruhe, Germany or PAN Biotech GmbH, Aidenbach, Germany). On the following day, the cells are loaded for 60 min at 37° C. with 2.13 μM Fluo-4 (Molecular Probes Europe BV, Leiden Holland) in HBSS buffer (Hank's buffered saline solution, Gibco Invitrogen GmbH, Karlsruhe, Germany) with 2.5 mM probenecid (Sigma-Aldrich, Taufkirchen, Germany) and 10 mM HEPES (Sigma-Aldrich, Taufkirchen, Germany). The plates are then washed 2× with HBSS buffer, and HBSS buffer which additionally contains 0.1% BSA (bovine serum albumin; Sigma-Aldrich, Taufkirchen, Germany), 5.6 mM glucose and 0.05% gelatine (Merck KGaA, Darmstadt, Germany) is added. After a further incubation of 20 minutes at room temperature, the plates are inserted into the FLIPR for the Ca^2+ measurement.
(§4) Alternatively, the plates are washed with buffer A (15 mM HEPES, 80 mM NaCl, 5 mM KCl, 1.2 mM CaCl2, 0.7 mM MgSO4, 2 g/l glucose, 2.5 mM probenecid), buffer A is added and the plates are loaded with 2.5 μM Fluo-4 and 0.025% Pluronic F127 (Sigma-Aldrich, Taufkirchen, Germany). Thereafter, the cells are washed 2× with buffer A and incubated for 30 minutes at room temperature with buffer A, which additionally contains 0.05% BSA and 0.05% gelatine, and thereafter inserted into the FLIPR for the Ca^2+ measurement.
(§5) The Ca^2+-dependent fluorescence is measured here before and after addition of substances (λex=488 nm, λem=540 nm). Quantification is by measurement of the highest fluorescence intensity (FC, fluorescence counts) over time.
(§6) The FLIPR protocol consists of 2 additions of substance. Test substances (10 μM) are first pipetted on to the cells and the Ca^2+ inflow is compared with the control (hB1R: Lys-Des-Arg^9-bradykinin>=50 nM; rB1R: Des-Arg^9-bradykinin 10 μM). This gives the result in % activation based on the Ca^2+ signal after addition of Lys-Des-Arg^9-bradykinin (>=50 nM) or Des-Arg^9-bradykinin (10 μM). After incubation for 10-20 minutes, Lys-Des-Arg^9-bradykinin (hB1R) or Des-Arg^9-bradykinin (rB1R) in the concentration of the EC80 is applied and the inflow of Ca^2+ is likewise determined. Antagonists lead to a suppression of the Ca^2+ inflow. % inhibition compared with the maximum achievable inhibition is calculated.
(§7) In order to determine the IC50 value, the substances are added in various concentrations. […]

Test [2] concerns the target T2, human B1R receptor (hB1R) (Homo sapiens, UniProt P46663).
T2 construct: expressed in transfected cells; host or cells: CHO K1 cells
T2 sequence (P46663 1-353): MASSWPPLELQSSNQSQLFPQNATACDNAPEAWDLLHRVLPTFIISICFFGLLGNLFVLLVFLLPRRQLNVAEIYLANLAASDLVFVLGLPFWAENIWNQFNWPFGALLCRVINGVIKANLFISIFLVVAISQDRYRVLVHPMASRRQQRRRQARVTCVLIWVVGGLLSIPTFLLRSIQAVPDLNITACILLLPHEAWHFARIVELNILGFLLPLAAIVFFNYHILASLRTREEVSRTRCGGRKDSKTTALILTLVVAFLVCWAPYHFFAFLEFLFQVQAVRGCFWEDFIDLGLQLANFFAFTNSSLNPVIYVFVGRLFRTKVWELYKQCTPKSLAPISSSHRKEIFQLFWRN
Description: Functional investigation on the bradykinin receptor 1 (B1R), FLIPR Ca2+ assay, hB1R cells. In kind it is cell-based. The procedure: as §1, §2, §3, §4, §5, §6, §7

What is called inhibition is the relative decrease from the control value, in per cent. For the molecule `COc1cc(C)c(S(=O)(=O)N(C)Cc2nc3cccc(C(=O)N4CCC5(CCC(Oc6ccncc6)CC5)CC4)c3[nH]2)c(C)c1` [I_03, 4-methoxy-N,2,6-trimethyl-N-[[7-(9-pyridin-4-yloxy-3-azaspiro[5.5]undecane-3-carbonyl)-1H-benzoimidazol-2-yl]-methyl]-benzenesulfonic acid amide], the inhibition at 10 µM was 86% in test [1] and 99% in test [2].

On to `COc1cc(C)c(S(=O)(=O)N(C)C(C)c2nc3cccc(C(=O)N4CCC5(CCN(C(=O)c6ccc(C(F)(F)F)cn6)CC5)CC4)c3[nH]2)c(C)c1` (centres unmarked) [I_CC-46, 4-Methoxy-N,2,6-trimethyl-N-[1-[7-[9-[5-(trifluoromethyl)-pyridine-2-carbonyl]-3,9-diazaspiro[5.5]undecane-3-carbonyl]-1H-benzoimidazol-2-yl]-ethyl]-benzenesulfonic acid amide], for which the inhibition at 10 µM amounted to 89% in test [1] and 42% in test [2].

On to `COc1cc(C)c(S(=O)(=O)N(C)C(C)c2nc3cccc(C(=O)N4CCC5(CCN(Cc6c[nH]cn6)CC5)CC4)c3[nH]2)c(C)c1` (centres unmarked) [I_CC-25, N-[1-[7-[9-(1H-Imidazol-4-yl-methyl)-3,9-diazaspiro[5.5]undecane-3-carbonyl]-1H-benzoimidazol-2-yl]-ethyl]-4-methoxy-N,2,6-trimethyl-benzenesulfonic acid amide], for which the results for the inhibition at 10 µM in test [1] and in test [2] were 103% and 58%, respectively.

As to `CN(Cc1nc2ccc(C(=O)N3CCC4(CC3)CCN(c3ccncc3)CC4)cc2[nH]1)S(=O)(=O)c1cccc2ccccc12` [I_25, N-methyl-N-[[6-(9-pyridin-4-yl-3,9-diazaspiro[5.5]undecane-3-carbonyl)-1H-benzoimidazol-2-yl]-methyl]-naphthalene-1-sulfonic acid amide], the values for the inhibition at 10 µM in test [1] and in test [2] were 96% and 95%, respectively.

With `COc1cc(C)c(S(=O)(=O)N(C)C(C)c2nc3cccc(C(=O)N4CCC5(CCN(Cc6c(F)cccc6Cl)CC5)CC4)c3[nH]2)c(C)c1` (centres unmarked) [I_CC-40, N-[1-[7-[9-[(2-Chloro-6-fluoro-phenyl)-methyl]-3,9-diazaspiro[5.5]undecane-3-carbonyl]-1H-benzoimidazol-2-yl]-ethyl]-4-methoxy-N,2,6-trimethyl-benzenesulfonic acid amide], the inhibition at 10 µM in test [1] worked out at 99%; in test [2], 49%.

`COc1cc(C)c(S(=O)(=O)N(C)C2(c3nc4cccc(C(=O)N5CCC6(CC5)CCN(c5ccncc5)CC6)c4[nH]3)CC2)c(C)c1` [I_12, 4-methoxy-N,2,6-trimethyl-N-[1-[7-(9-pyridin-4-yl-3,9-diazaspiro[5.5]undecane-3-carbonyl)-1H-benzoimidazol-2-yl]-cyclopropyl]-benzenesulfonic acid amide]: the inhibition at 10 µM was determined as 92% in test [1] and 98% in test [2].

For `CN(Cc1nc2ccc(C(=O)N3CCC4(CC3)CCN(c3ccncc3)CC4)cc2[nH]1)S(=O)(=O)c1ccccc1C(F)(F)F` [I_24, N-methyl-N-[[6-(9-pyridin-4-yl-3,9-diazaspiro[5.5]undecane-3-carbonyl)-1H-benzoimidazol-2-yl]-methyl]-2-(trifluoromethyl)-benzenesulfonic acid amide], the inhibition at 10 µM worked out at 102% in test [1] and 100% in test [2].

For `COc1cc(C)c(S(=O)(=O)N(C)Cc2nc3cccc(C(=O)N4CCC5(CC4)CCN(c4ccncc4)CC5)c3[nH]2)c(C)c1` [I_CC-03, 4-methoxy-N,2,6-trimethyl-N-[[7-(3-pyridin-4-yl-3,9-diazaspiro[5.5]undecane-9-carbonyl)-1H-benzoimidazol-2-yl]-methyl]-benzenesulfonic acid amide], the inhibition at 10 µM in test [1] and in test [2] was 100% in each case.

On to `CN(Cc1nc2cccc(C(=O)N3CCC4(CC3)CCN(c3ccncc3)C4)c2[nH]1)C(=O)c1sccc1Cl` [I_CC-09, 3-chloro-N-methyl-N-[[7-(3-pyridin-4-yl-3,8-diazaspiro[4.5]decane-8-carbonyl)-1H-benzoimidazol-2-yl]-methyl]-thiophene-2-carboxylic acid amide], for which the inhibition at 10 µM in test [1] worked out at 58%; in test [2] it was 15%.

As for `COc1cc(C)c(S(=O)(=O)N(C)Cc2nc3cccc(CN4CCC5(CC4)CCN(c4ccncc4)CC5)c3[nH]2)c(C)c1` [I_15, 4-methoxy-N,2,6-trimethyl-N-[[7-[(9-pyridin-4-yl-3,9-diazaspiro[5.5]undecan-3-yl)-methyl]-1H-benzoimidazol-2-yl]-methyl]-benzenesulfonic acid amide], the results for the inhibition at 10 µM in test [1] and in test [2] were 103% and 100%, respectively.

In the case of `CN(Cc1nc2cccc(C(=O)N3CCC4(CC3)CCN(c3ccncc3)CC4)c2[nH]1)C(=O)c1ccccc1Cl` [I_CC-04, 2-chloro-N-methyl-N-[[7-(3-pyridin-4-yl-3,9-diazaspiro[5.5]undecane-9-carbonyl)-1H-benzoimidazol-2-yl]-methyl]-benzamide], the inhibition at 10 µM in test [1] amounted to 102%; in test [2], 65%.

For `COc1cc(C)c(S(=O)(=O)N(C)Cc2nc3c(C(=O)N4CCC5(CC4)CCN(c4ccncc4)CC5)cccc3n2C)c(C)c1` [I_20, 4-methoxy-N,2,6-trimethyl-N-[[1-methyl-4-(9-pyridin-4-yl-3,9-diazaspiro[5.5]undecane-3-carbonyl)-1H-benzoimidazol-2-yl]-methyl]-benzenesulfonic acid amide], the inhibition at 10 µM was 30% in test [1] and 98% in test [2].

Turning to `COc1cc(C)c(S(=O)(=O)N(C)CCc2nc3c(C(=O)N4CCC5(CC4)CCN(c4ccncc4)CC5)cccc3[nH]2)c(C)c1` [I_02, 4-methoxy-N,2,6-trimethyl-N-[2-[4-(9-pyridin-4-yl-3,9-diazaspiro[5.5]undecane-3-carbonyl)-1H-benzoimidazol-2-yl]-ethyl]-benzenesulfonic acid amide], the values for the inhibition at 10 µM in test [1] and in test [2] were 100% and 97%, respectively.
